Data from publication PMC6272399, “Anti-Proliferative Effect and Induction of Apoptosis in Androgen-Independent Human Prostate Cancer Cells by 1,5-Bis(2-hydroxyphenyl)-1,4-pentadiene-3-one” (Molecules, 2015).

Key:
DU 145 cells [1] = assay: BrdU cell proliferation assay, DU 145; type: cell-based, human; details: DU 145, BrdU
Experimental: (§1) The anti-proliferative effects of compound on treated cells, was measured using the BrdU cell proliferation assay kit (Roche Applied Science Diagnostics, Indianapolis, IN, USA) according to the manufacturer’s protocol. The assay was based on incorporation of BrdU during DNA synthesis in proliferating cells. Cells were plated at a concentration of 10^4 cells/mL in a 96-well microtiter plate and incubated overnight. The cells were treated with compounds and curcumin (concentrations ranging from 1.56 µM–100 µM) as positive control for 24, 48 and 72 h respectively. Then, BrdU labeling solution (5 µL, diluted by 1/100 in culture media) was added to each well and incubated for 2 h at 37 °C. The media was replaced with fix/denaturing solution (100 µL) and incubated for 30 min at room temperature. Then, the fix/denaturing solution was removed by tapping off and followed by addition of 50 µL anti-BrdU antibody (50 µL, diluted by 1/100 in dilution buffer) to each well and further incubated for another 90 min at room temperature. Next, the cells were washed 3 times with wash buffer and substrate solution (50 µL) was added to each well. The plate was left for 10 min at room temperature in the dark and the absorbance was measured at a wavelength of 370 nm with a reference wavelength of 492 nm using a micro-plate ELISA reader (Bio-Rad). The percentage of BrdU incorporation was determined based on the ratio of absorbance of sample treated-cells to absorbance of control (untreated cells/DMSO only) multiplied by 100.

[2] = system: WI-38 (human lung fibroblast cells); assay: MTT cytotoxicity assay, normal WI-38; type: cell-based; details: normal cell line, 72 h treatment, mean ± SD, read-out: EC50 Values (µM) of Compounds on Cell Lines WI-38
Experimental: (§2) Cell viability was determined by the MTT [3-(4,5-dimethylthiazol-2-yl)-2,5-diphenyltetrazolium bromide] assay, as previously described by Mosmann with modifications. Briefly, cells were detached from the tissue culture flask and pelleted by centrifugation at 1000 rpm for 5 min. Then, the density of the viable cells was counted using a haemocytometer. Cells were then plated in a 96-well flat bottom micro-titer plate (Nunc) at a concentration of 10^4 cells/mL and incubated in a 5% CO2 incubator at 37 °C overnight to allow the cells to adhere to the bottom of the wells. After 24 h, the media was aspirated off and replaced with fresh media containing sample compounds (curcumin and curcumin analogues) of seven different concentrations ranging from 1.56 µM–100 µM and incubated at 37 °C, 5% CO2 for 72 h. Separately, the sample compounds were prepared in a stock solution of 50 mM in 100% dimethyl sulfoxide (DMSO, Molecular Biology Grade, Sigma-Aldrich, St. Louis, MO, USA) and diluted in the culture media to a working concentration of 200 µM. Curcumin, the parent compound which was used as the positive control was also prepared in the similar manner. A two-fold serial dilution was done for each sample in triplicates down the columns of the plate, yielding a final volume and concentration of 100 µL in 0.2% DMSO in each wells. Following treatment, 50 µL MTT solutions (0.5 mg/mL in PBS) was added to each well and incubated for another 4 h at 37 °C in a humidified 5% CO2 incubator. The supernatant was replaced with 100 µL of DMSO and the optical density (OD) was measured at 570/650 nm using a micro-plate ELISA reader (Bio-Rad Laboratories, Hercules, CA, USA). The percentage of viable cells was calculated based on the ratio of the corrected absorbance of sample-treated cells to the corrected absorbance of the control (0.2% DMSO-treated cells) multiplied by 100. The percentage of cell viability was determined as follows: % Cell viability= OD of treated cells /OD of control ×100
(§3) For each compound tested, the EC50 value was generated from the log dose-response curves for each cell line using the Graphpad Prism version 5.04 for Windows (Graphpad Software, La Jolla, CA, USA). […] Cytotoxicity of each tested compound is expressed as the EC50 value. Based on the EC50 values, selectivity index (SX) value was also determined. Selectivity index is a special parameter applied as a selectivity indicator of tested compounds towards cancer cells. The SX represents the ratio of EC50 value obtained in toxicity testing using the normal cell lines to the EC50 values of the toxicity testing of the cancer cells, and then multiplied by 100. All the compounds were assessed for their potential toxicity against normal, non-cancerous cells. […] The SX values were calculated using the following equation: SX = EC50 (normal cells)/EC50 (cancer cells) × 100

[3] = system: WRL 68 (human epithelial hepatocytes); assay: MTT cytotoxicity assay, normal WRL 68; type: cell-based; details: WRL68, normal cell line, 72 h treatment, mean ± SD, read-out: EC50 Values (µM) of Compounds on Cell Lines WRL-68
Experimental: as §2, §3

DU 145 cells [4] = assay: MTT cytotoxicity (cell viability) assay, DU 145; type: cell-based, human; details: for dose from which decrease in cell viability is significant: DU 145, MTT, vs untreated; for EC50: Homo sapiens, DU-145, MTT, 72 h treatment, mean ± SD, three experiments, read-out: EC50 Values (µM) of Compounds on Cell Lines DU 145; for Selective index (SX) WI-38 vs DU 145: SX = EC50 (WI-38)/EC50 (DU 145) × 100; for Selective index (SX) WRL68 vs DU 145: SX = EC50 (WRL68)/EC50 (DU 145) × 100
Experimental: as §2, §3

PC-3 cells [5] = assay: BrdU cell proliferation assay, PC-3; type: cell-based, human; details: PC-3, BrdU
Experimental: as §1

PC-3 cells [6] = assay: MTT cytotoxicity (cell viability) assay, PC-3; type: cell-based, human; details: for EC50: Homo sapiens, PC-3, MTT, 72 h treatment, mean ± SD, three experiments, read-out: EC50 Values (µM) of Compounds on Cell Lines PC-3; for dose from which decrease in cell viability is significant: PC-3, MTT, vs untreated; for Selective index (SX) WI-38 vs PC-3: SX = EC50 (WI-38)/EC50 (PC-3) × 100; for Selective index (SX) WRL68 vs PC-3: SX = EC50 (WRL68)/EC50 (PC-3) × 100
Experimental: as §2, §3

[7] = system: caspase-3 activity in DU 145 cells; assay: Caspase-3 colorimetric activity assay, DU 145; type: cell-based, human; details: DU 145, all time points, inhibitor control
Experimental: (§4) Caspase-3 activity was determined using the caspase-3 colorimetric assay kit (Sigma-Aldrich) according to manufacturer’s protocol. The assay is based on spectrophotometric detection of p-nitroanilide (pNA) a colored molecule, after its cleavage from the labeled substrate DEVD-pNA by the activity of caspase-3 enzyme. PC-3 and DU 145 cells were treated with MS17 at different concentrations (EC50, 2 × EC50, 3 × EC50) at various time points, 6, 12, 24, 48 and 72 h as appropriate. Following treatment, cells were washed with PBS and suspended with lysis buffer (50 mM HEPES, pH 7.4, 5 mM CHAPS, 5 mM DTT) for 30 min on ice at the concentration of 10^7 cells per 100 µL buffer. Cells were then spun for 30 min at 16,000× g, 4 °C. Protein lysate concentrations were measured based on the Bradford assay method using the Cayman Chemical protein determination kit (Cayman Chemical Company, Ann Arbor, MI, USA) based on the manufacturer’s protocol. Assay was performed on a 96-well micro-titer plate by adding equal amount of protein lysate (~100 µg) into wells containing the assay buffer (20 mM HEPES pH 7.4, 0.1% CHAPS, 5 mM DTT, 2 mM EDTA). Reaction was started by the addition of 10 µL of substrate Ac-DEVD-pNA (2 mM). The effect of Ac-DEVD-CHO, a caspase-3 inhibitor was also studied simultaneously on caspase-3 activity. Ten microliter of the inhibitor (200 µM) was added into the wells containing the protein lysate, assay buffer and the substrate. Caspase-3 activity was measured upon the release of pNA molecule, a pale yellow colored product using the micro-plate ELISA reader (Bio-Rad) at the wavelength of 405 nm. Relative caspase-3 activity was expressed as absorbance of enzyme activity compared with the control (untreated cells/DMSO only) based on the equation below: Relative caspase 3 activity= Absorbance of treated cells /Absorbance of control

[8] = system: caspase-3 activity in PC-3 cells; assay: Caspase-3 colorimetric activity assay, PC-3; type: cell-based, human; details: PC-3, all time points, inhibitor control
Experimental: as §4

Compound | concentration from which anti-proliferative activity is significant (DU 145 cells [1]; 24 h) [µM] | concentration from which anti-proliferative activity is significant (DU 145 cells [1]; 48 h) [µM] | concentration from which anti-proliferative activity is significant (DU 145 cells [1]; 72 h) [µM] | EC50 [2] [µM] | EC50 [3] [µM] | dose from which decrease in cell viability is significant (DU 145 cells [4]) [µM] | EC50 (DU 145 cells [4]) [µM] | Selective index (SX) WI-38 vs DU 145 (DU 145 cells [4]) | Selective index (SX) WRL68 vs DU 145 (DU 145 cells [4]) | concentration from which anti-proliferative activity is significant (PC-3 cells [5]; 24 h) [µM] | concentration from which anti-proliferative activity is significant (PC-3 cells [5]; 48 h) [µM] | concentration from which anti-proliferative activity is significant (PC-3 cells [5]; 72 h) [µM] | EC50 (PC-3 cells [6]) [µM] | dose from which decrease in cell viability is significant (PC-3 cells [6]) [µM] | Selective index (SX) WI-38 vs PC-3 (PC-3 cells [6]) | Selective index (SX) WRL68 vs PC-3 (PC-3 cells [6]) | relative caspase-3 activity with caspase-3 inhibitor [7] | relative caspase-3 activity with caspase-3 inhibitor [8]
COc1cc(/C=C/C(=O)CC(=O)/C=C/c2ccc(O)c(OC)c2)ccc1O [Curcumin, diferuloylmethane, reference compound] | 50 | 50 | 50 | 27.9 ± 2.9 | 28.7 ± 3.2 | 50 | 32.5 ± 1.4 | 85.8 | 88.2 | 50 | 50 | 50 | 35.9 ± 2.9 | 50 | 77.5 | 79.8 | – | –
COc1cc(C=CC(=O)C=Cc2ccc(O)c(OC)c2)ccc1O [MS13, 1,5-bis(4-hydroxy-3-methoxyphenyl)-1,4-pentadiene-3-one] | 12.5 | 12.5 | 25 | 9.4 ± 2.3 | 8.7 ± 0.2 | 12.5 | 7.4 ± 2.6 | 127.2 | 117.3 | 12.5 | 12.5 | 12.5 | 7.5 ± 0.1 | 6.3 | 124.8 | 115.1 | – | –
O=C(C=Cc1cccc(F)c1)C=Cc1cccc(F)c1 [MS40E, 1,5-bis(3-fluorophenyl)-1,4-pentadiene-3-one] | 50 | 50 | 50 | 28.4 ± 1.7 | 30.3 ± 2 | 50 | 30.3 ± 1.9 | 93.5 | 100.0 | 50 | 50 | 50 | 28 ± 7.8 | 50 | 101.4 | 108.3 | – | –
O=C1C(=Cc2cccc(F)c2)CCCC1=Cc1cccc(F)c1 [MS49, 2,6-bis(3-fluorobenzylidene)cyclohexanone] | 25 | 25 | 50 | 19.4 ± 7 | 13.1 ± 0.4 | 25 | 12.3 ± 2.3 | 158.6 | 106.8 | 25 | 25 | 25 | 14.5 ± 1.2 | 12.5 | 134.3 | 90.4 | – | –
Ac-DEVD-CHO [reference compound] | – | – | – | – | – | – | – | – | – | – | – | – | – | – | – | – | relatively low expression levels | relatively low expression levels
